Test results taken from ChEMBL document CHEMBL2069259, “Preclinical strategy to reduce clinical hepatotoxicity using in vitro bioactivation data for >200 compounds” (Chem Res Toxicol, 2012).
Starred links: 1 amine or outer side, 2 acyl side, 3 side chain; linkers in the order of their positions; H or OH if unused. Positions of bridges follow the written chain, without caps; N, C: chain ends. Non-standard residues stand in square brackets, D forms with d. Residues, ends and D or L forms follow the SMILES beside them. Chains are numbered I, II in the order given. Actinocin(9to1) = Cc1c2oc3c(C)ccc(C(=O)[*:1])c3nc-2c(C(=O)[*:2])c(N)c1=O; NMeV = CN[C@H](C(=O)O)C(C)C; Sar = CNCC(=O)O

Columns and labels:
CYP2C9 = CYP2C9 (Homo sapiens, UniProt P11712); experiment: Inhibition of human CYP2C9 assessed as ratio of IC50 in absence of NADPH to IC50 for presence of NADPH using 7-methoxy-4-trifluoromethylcoumarin-3-acetic acid as substrate after 30 mins
CYP2C19 = CYP2C19 (Homo sapiens, UniProt P33261); experiment: Inhibition of human CYP2C19 assessed as ratio of IC50 in absence of NADPH to IC50 for presence of NADPH using 3-butyryl-7-methoxycoumarin as substrate after 30 mins
Liver microsomes [1] = experiment: Metabolic stability in human liver microsomes assessed as GSH adduct formation at 100 uM after 90 mins by HPLC-MS analysis; conditions: 1.5 h
CYP2D6 = CYP2D6 (Homo sapiens, UniProt P10635); experiment: Inhibition of human CYP2D6 assessed as ratio of IC50 in absence of NADPH to IC50 for presence of NADPH using 4-methylaminoethyl-7-methoxycoumarin as substrate after 30 mins
Liver microsomes [2] = experiment: Metabolic stability in human liver microsomes assessed as low signal/noise ratio (S/N of 1 to 10) by measuring GSH adduct formation at 100 uM after 90 mins by HPLC-MS analysis; assay type: ADME, Microsome; conditions: 1.5 h
CYP3A4 [3] = target: T1, CYP3A4 (Homo sapiens, UniProt P08684); experiment: Inhibition of human CYP3A4 assessed as ratio of IC50 in absence of NADPH to IC50 for presence of NADPH using diethoxyfluorescein as substrate after 30 mins
CYP3A4 [4] = target: T1, CYP3A4; experiment: Inhibition of human CYP3A4 assessed as ratio of IC50 in absence of NADPH to IC50 for presence of NADPH using 7-benzyloxyquinoline as substrate after 30 mins
Liver microsomes [5] = experiment: Metabolic stability in human liver microsomes assessed as high signal/noise ratio (S/N of >100) by measuring GSH adduct formation at 100 uM after 90 mins by HPLC-MS analysis; conditions: 1.5 h
CYP1A2 = target: T2, CYP1A2 (Homo sapiens, UniProt P05177); experiment: Inhibition of human CYP1A2 assessed as ratio of IC50 in absence of NADPH to IC50 for presence of NADPH using ethoxyresorufin as substrate after 30 mins
T2 sequence (P05177 whole entry): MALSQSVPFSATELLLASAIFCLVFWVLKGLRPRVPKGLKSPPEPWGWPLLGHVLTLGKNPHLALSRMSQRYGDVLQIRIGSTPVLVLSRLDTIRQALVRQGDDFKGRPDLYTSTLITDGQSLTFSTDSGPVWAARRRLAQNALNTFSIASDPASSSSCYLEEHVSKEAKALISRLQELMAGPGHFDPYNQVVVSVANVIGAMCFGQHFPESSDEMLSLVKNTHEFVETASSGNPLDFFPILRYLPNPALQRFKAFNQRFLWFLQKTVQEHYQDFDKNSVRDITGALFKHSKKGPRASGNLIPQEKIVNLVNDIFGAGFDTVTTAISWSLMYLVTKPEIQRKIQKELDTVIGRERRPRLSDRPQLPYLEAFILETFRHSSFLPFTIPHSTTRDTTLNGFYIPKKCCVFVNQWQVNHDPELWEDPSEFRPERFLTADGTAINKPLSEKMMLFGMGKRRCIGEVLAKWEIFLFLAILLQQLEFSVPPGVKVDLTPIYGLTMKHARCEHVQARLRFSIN

Liver microsomes [6] = conditions: human, 1.5 h, 100 µM
[7] = probe 4-methylaminoethyl-7-methoxycoumarin

CYP2D6, sequence (P10635 whole entry): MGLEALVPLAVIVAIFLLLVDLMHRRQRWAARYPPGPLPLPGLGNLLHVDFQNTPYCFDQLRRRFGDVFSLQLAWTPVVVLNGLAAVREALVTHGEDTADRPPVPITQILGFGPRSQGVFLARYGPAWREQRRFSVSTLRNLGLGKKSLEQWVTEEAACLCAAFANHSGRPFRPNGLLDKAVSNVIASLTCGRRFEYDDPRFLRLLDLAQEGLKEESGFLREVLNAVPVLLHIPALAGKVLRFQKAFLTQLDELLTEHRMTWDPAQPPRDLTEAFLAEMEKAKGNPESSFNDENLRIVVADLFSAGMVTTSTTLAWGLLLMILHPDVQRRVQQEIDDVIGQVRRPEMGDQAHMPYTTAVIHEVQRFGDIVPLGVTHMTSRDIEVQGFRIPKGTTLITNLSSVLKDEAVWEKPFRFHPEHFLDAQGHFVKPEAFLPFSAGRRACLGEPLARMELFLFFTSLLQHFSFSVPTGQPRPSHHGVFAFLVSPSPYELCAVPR
CYP2C19, sequence (P33261 whole entry): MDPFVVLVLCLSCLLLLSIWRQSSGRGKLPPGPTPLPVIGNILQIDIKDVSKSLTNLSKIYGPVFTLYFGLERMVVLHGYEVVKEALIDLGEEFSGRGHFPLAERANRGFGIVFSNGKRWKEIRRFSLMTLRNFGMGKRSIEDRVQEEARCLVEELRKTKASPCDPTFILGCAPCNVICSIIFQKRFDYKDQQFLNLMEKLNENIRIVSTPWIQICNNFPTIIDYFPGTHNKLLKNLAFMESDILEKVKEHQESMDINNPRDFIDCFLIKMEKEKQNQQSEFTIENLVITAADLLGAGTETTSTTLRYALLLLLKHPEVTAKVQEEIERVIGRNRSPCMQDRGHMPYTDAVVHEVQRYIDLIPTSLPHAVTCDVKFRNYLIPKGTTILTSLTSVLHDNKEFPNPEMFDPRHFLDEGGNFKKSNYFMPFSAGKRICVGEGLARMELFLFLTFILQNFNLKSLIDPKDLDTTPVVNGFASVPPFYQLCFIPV
T1 sequence (P08684 whole entry): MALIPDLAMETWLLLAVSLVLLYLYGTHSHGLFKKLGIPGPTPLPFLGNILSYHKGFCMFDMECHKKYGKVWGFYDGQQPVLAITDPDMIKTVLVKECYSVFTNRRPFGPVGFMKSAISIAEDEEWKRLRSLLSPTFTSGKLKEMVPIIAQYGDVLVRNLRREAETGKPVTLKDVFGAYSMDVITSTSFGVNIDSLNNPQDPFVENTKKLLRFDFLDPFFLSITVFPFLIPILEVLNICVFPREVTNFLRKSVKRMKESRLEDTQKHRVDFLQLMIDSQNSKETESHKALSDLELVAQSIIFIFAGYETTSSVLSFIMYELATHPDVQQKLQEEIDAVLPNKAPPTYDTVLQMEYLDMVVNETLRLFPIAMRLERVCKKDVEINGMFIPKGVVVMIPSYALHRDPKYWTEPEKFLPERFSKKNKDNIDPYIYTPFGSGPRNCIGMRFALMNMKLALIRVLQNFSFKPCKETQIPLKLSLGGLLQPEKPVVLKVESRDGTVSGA
CYP2C9, sequence (P11712 whole entry): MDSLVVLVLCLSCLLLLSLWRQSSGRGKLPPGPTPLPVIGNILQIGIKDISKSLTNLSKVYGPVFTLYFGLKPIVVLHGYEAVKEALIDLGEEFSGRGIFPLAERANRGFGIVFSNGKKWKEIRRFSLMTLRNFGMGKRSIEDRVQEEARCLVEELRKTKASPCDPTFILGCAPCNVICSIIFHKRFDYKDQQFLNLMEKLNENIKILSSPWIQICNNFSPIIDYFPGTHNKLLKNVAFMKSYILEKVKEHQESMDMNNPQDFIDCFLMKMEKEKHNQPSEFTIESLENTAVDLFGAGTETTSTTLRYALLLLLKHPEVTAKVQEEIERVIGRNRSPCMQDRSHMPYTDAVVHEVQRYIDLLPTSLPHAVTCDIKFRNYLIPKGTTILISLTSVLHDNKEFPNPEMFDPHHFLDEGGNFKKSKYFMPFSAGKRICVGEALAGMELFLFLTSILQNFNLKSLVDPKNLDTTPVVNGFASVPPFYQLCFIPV

With `O=C(O)COc1ccc(C(=O)c2cccs2)c(Cl)c1Cl` the IC50 shift at 0.5 h (CYP2C9) was 2, the IC50 shift at 0.5 h (CYP2C19) was < 2 and the Stability (Liver microsomes [1]) was “Stable”.

With `Oc1ccc2c(c1)[C@@]13CCCC[C@@]1(O)[C@@H](C2)N(CC1CCC1)CC3` [BUTORPHANOL] the IC50 shift at 0.5 h (CYP2D6; [7]) was < 2 and the Stability (Liver microsomes [1]) was “Stable”.

`Cc1cc(C(C)(C)C)c(O)c(C(C)(C)C)c1` [BUTYLATED HYDROXYTOLUENE] was tested, and the Stability (Liver microsomes [2]) was “Unstable”.

With `CCOC(=O)n1ccn(C)c1=S` [CARBIMAZOLE] the IC50 shift at 0.5 h (CYP2D6) was > 5, the IC50 shift at 0.5 h (CYP3A4 [3]) was > 5 and the IC50 shift at 0.5 h (CYP3A4 [4]) was > 5. The Stability (Liver microsomes [5]) was “Unstable”.

In the case of `CC[C@H]1OC(=O)[C@H](C)[C@@H](O[C@H]2C[C@@](C)(OC)[C@@H](O)[C@H](C)O2)[C@H](C)[C@@H](O[C@@H]2O[C@H](C)C[C@H](N(C)C)[C@H]2O)[C@](C)(OC)C[C@@H](C)C(=O)[C@H](C)[C@@H](O)[C@]1(C)O` [CLARITHROMYCIN], the IC50 shift at 0.5 h (CYP3A4 [3]; probe diethoxyfluorescein) is reported as > 5, the IC50 shift at 0.5 h (CYP3A4 [4]; probe 7-benzyloxyquinoline) is reported as > 5 and the Stability (Liver microsomes [1]) is reported as “Stable”.

For `CN1CCC[C@@H]1CCO[C@](C)(c1ccccc1)c1ccc(Cl)cc1` [CLEMASTINE], the IC50 shift at 0.5 h (CYP2C19) was < 2, the IC50 shift at 0.5 h (CYP3A4 [3]) was 2 and the IC50 shift at 0.5 h (CYP3A4 [4]) was > 5. For the same compound, the Stability (Liver microsomes [1]) was “Stable”.

`Clc1ccccc1C(c1ccccc1)(c1ccccc1)n1ccnc1` [CLOTRIMAZOLE] was tested, and the IC50 shift at 0.5 h (CYP1A2) was 2, the IC50 shift at 0.5 h (CYP2D6) was < 2 and the Stability (Liver microsomes [1]) was “Stable”.

With `COc1cc2c(c(OC)c1OC)-c1ccc(OC)c(=O)cc1[C@@H](NC(C)=O)CC2` [COLCHICINE] the Stability (Liver microsomes [2]) was “Unstable”.

With `Cc1c2oc3c(C)ccc(C(=O)N[C@@H]4C(=O)N[C@H](C(C)C)C(=O)N5CCC[C@H]5C(=O)N(C)CC(=O)N(C)[C@@H](C(C)C)C(=O)O[C@@H]4C)c3nc-2c(C(=O)N[C@@H]2C(=O)N[C@H](C(C)C)C(=O)N3CCC[C@H]3C(=O)N(C)CC(=O)N(C)[C@@H](C(C)C)C(=O)O[C@@H]2C)c(N)c1=O` [DACTINOMYCIN] (I: T[dV]P[Sar][NMeV] / II: T[dV]P[Sar][NMeV]; ester I:1-I:C, II:1-II:C; linker I:N-II:N via Actinocin(9to1)) the IC50 shift at 0.5 h (CYP2C9; probe 7-methoxy-4-trifluoromethylcoumarin-3-acetic acid) was 2, the IC50 shift at 0.5 h (CYP2C19; probe 3-butyryl-7-methoxycoumarin) was < 2 and the IC50 shift at 0.5 h (CYP3A4 [4]; probe 7-benzyloxyquinoline) was 2. For the same compound, the Stability (Liver microsomes [1]) was “Stable”.

With `Nc1ccc(S(=O)(=O)c2ccc(N)cc2)cc1` [DAPSONE] the Stability (Liver microsomes [2]) was “Unstable”.

In the case of `CC/C(=C(/CC)c1ccc(O)cc1)c1ccc(O)cc1` [DIETHYLSTILBESTROL], the IC50 shift at 0.5 h (CYP1A2) is reported as 2 and the Stability (Liver microsomes [5]) is reported as “Unstable”.

`COc1cccc2c1C(=O)c1c(O)c3c(c(O)c1C2=O)C[C@@](O)(C(=O)CO)C[C@@H]3O[C@H]1C[C@H](N)[C@H](O)[C@H](C)O1` [DOXORUBICIN] was tested, and the IC50 shift at 0.5 h (CYP3A4 [3]) was 2, the IC50 shift at 0.5 h (CYP3A4 [4]) was > 5 and the Stability (Liver microsomes [6]) was “Unstable”.

For `CC1(C)[C@@H](O)CC[C@]2(C)[C@H]3C(=O)C=C4[C@@H]5C[C@@](C)(C(=O)O)CC[C@]5(C)CC[C@@]4(C)[C@]3(C)CC[C@@H]12` [ENOXOLONE], the IC50 shift at 0.5 h (CYP1A2; probe ethoxyresorufin) was 2 and the Stability (Liver microsomes [1]) was “Stable”.

For `C#C[C@]1(O)CC[C@H]2[C@@H]3CCc4cc(O)ccc4[C@H]3CC[C@@]21C` [ETHINYL ESTRADIOL], the IC50 shift at 0.5 h (CYP3A4 [3]; probe diethoxyfluorescein) was 2, the IC50 shift at 0.5 h (CYP3A4 [4]; probe 7-benzyloxyquinoline) was 2 and the Stability (Liver microsomes [5]) was “Unstable”.

`CC(C)OC(=O)C(C)(C)Oc1ccc(C(=O)c2ccc(Cl)cc2)cc1` [FENOFIBRATE] was tested, and the IC50 shift at 0.5 h (CYP1A2) was > 5, the IC50 shift at 0.5 h (CYP2C19) was < 2 and the IC50 shift at 0.5 h (CYP2D6) was 2. For the same compound, the IC50 shift at 0.5 h (CYP3A4 [3]) was < 2 and the Stability (Liver microsomes [1]) was “Stable”.

In the case of `CNCCC(Oc1ccc(C(F)(F)F)cc1)c1ccccc1` (stereo not drawn) [FLUOXETINE], the IC50 shift at 0.5 h (CYP2C9) is reported as 2, the IC50 shift at 0.5 h (CYP2C19) is reported as > 5 and the IC50 shift at 0.5 h (CYP3A4 [3]) is reported as 2. The IC50 shift at 0.5 h (CYP3A4 [4]) was > 5 and the Stability (Liver microsomes [1]) was “Stable”.

`CC(C)C(=O)Nc1ccc([N+](=O)[O-])c(C(F)(F)F)c1` [FLUTAMIDE] was tested, and the IC50 shift at 0.5 h (CYP1A2) was < 2, the IC50 shift at 0.5 h (CYP2D6) was < 2 and the IC50 shift at 0.5 h (CYP3A4 [3]) was < 2. For the same compound, the Stability (Liver microsomes [6]) was “Unstable”.

In the case of `COCCCC/C(=N\OCCN)c1ccc(C(F)(F)F)cc1` [FLUVOXAMINE], the IC50 shift at 0.5 h (CYP1A2; probe ethoxyresorufin) is reported as < 2, the IC50 shift at 0.5 h (CYP2D6; [7]) is reported as 2 and the Stability (Liver microsomes [5]) is reported as “Unstable”.

With `O=C(OCC(O)CO)c1ccccc1Nc1ccnc2cc(Cl)ccc12` (stereo not drawn) [GLAFENINE] the Stability (Liver microsomes [2]) was “Unstable”.

For `C[N+]1(C)[C@@H]2CC[C@H]1C[C@@H](OC(=O)C(O)c1ccccc1)C2` (stereo partly drawn) [HOMATROPINE METHYLBROMIDE], the IC50 shift at 0.5 h (CYP2D6; [7]) was < 2.

For `CCN(CC)CCNc1ccc(CO)c2sc3ccccc3c(=O)c12` [HYCANTHONE], the IC50 shift at 0.5 h (CYP1A2) was > 5, the IC50 shift at 0.5 h (CYP3A4 [3]) was 2 and the Stability (Liver microsomes [5]) was “Unstable”.

With `NNC(=O)c1ccncc1` [ISONIAZID] the IC50 shift at 0.5 h (CYP2C19) was > 5, the IC50 shift at 0.5 h (CYP2D6) was > 5 and the IC50 shift at 0.5 h (CYP3A4 [3]) was > 5. The IC50 shift at 0.5 h (CYP3A4 [4]) was > 5 and the Stability (Liver microsomes [1]) was “Stable”.
